Reference: publication PMC5295762, “Verticillin A Inhibits Leiomyosarcoma and Malignant Peripheral Nerve Sheath Tumor Growth via Induction of Apoptosis” (Clinical & experimental pharmacology, 2016)

How the values were obtained:
LMS1 cells [1] = experiment: Annexin V/PI FACS analysis, LMS1; type: cell-based; settings: LMS1, 24 h treatment, concentration not given
Description: (§1) Apoptosis was measured by quantifying cleaved-caspase 3 and cleaved-caspase 7 activity using Cell Event Caspase 3/7 Green Detection Reagent (Life Technologies, Carlsbad, CA, USA) in the Incucyte Zoom system (Essen BioScience, Ann Arbor, MI, USA). Cells were plated at a density of 4,200 cells per well and allowed to adhere. The cells were then treated with DMSO or 10, 50, or 100 nM verticillin A for 24 h, and caspase activity was monitored using fluorescent Cell Event Caspase 3/7 Reagent (5 µM final concentration). Endpoint analysis was performed in each well using a final concentration of 10 µM Vybrant DyeCycle Green Stain (Life Technologies, Carlsbad, CA, USA) in complete DMEM. Apoptosis was confirmed using the Apoptosis Detection Kit (BD Pharmagen, San Diego, CA, USA) in complete DMEM. Per supplier instructions, 1 × 10^6 cells/mL were stained with 5 µL Annexin V-FITC and 5 µL propidium iodide following 24 h treatment with DMSO or 10, 50, or 100 nM verticillin A and analyzed via FACS analysis (LSR II, BD Pharmagen, San Diego, CA, USA).

ST88 cells = experiment: MTS cell viability analysis, ST88; type: cell-based, human; settings: 24 h
Description: (§2) MTS analysis was performed using CellTiter96 Aqueous Non-Radioactive Cell Proliferation Assay kit (Promega, Madison, WI, USA) as specified by the manufacturer. Cells were seeded at a density of 5,000 cells per well, and allowed to adhere overnight. Cellular viability was assessed 24 h after treatment with DMSO (control), or 10, 50, or 100 nM verticillin A, and absorbance was measured at 490 nm wavelength.
(§3) In vitro analyses were performed in triplicate. Mean ± SEM (standard error mean) calculations and statistical analyses were performed for all cell-based assays, and EC50 values were computed using GraphPad Prism version 6.00 (for Windows, GraphPad Software, La Jolla California USA, www.graphpad.com). All Student t tests performed were unpaired and two-sided. The average tumor volume (mm^3) and weight ([…]) for each study arm was measured and recorded. Mean ± SEM was calculated for each treatment group, and end-point analyses determined using unpaired two-sided t test was utilized to determine variances. *p ≤ 0.05; **p ≤ 0.01; ***p ≤ 0.001.

HASMC = experiment: Cleaved caspase 3/7 activity, HASMC; type: cell-based, human; settings: 24 h
Description: as §1

MPNST724 xenografts = experiment: MPNST724 xenograft model; type: in vivo, SCID mice
Description: Six week old female SCID mice (Taconic Biosciences, Hudson, NY, USA; model ^#CB17SC) were injected subcutaneously with 1 × 10^6 MPNST724 cells into the flank. Once tumors reached 0.5 cm, mice were allocated into three arms (10 mice per arm) and treatment via intraperitoneal injections was initiated: Vehicle (5% ethanol/15% cremophor EL/80% PBS), verticillin A (0.25 mg/kg every other day), or verticillin A (0.5 mg/kg every other day). Mice were weighed and tumors were measured twice weekly. Mice were euthanized once tumors in the control group grew to ~1.5 cm. Final tumor volumes and weights were measured, and tumors were processed for IHC analysis.
Ki67 (Vector Laboratories) and cleaved caspase 3 (Cell Signaling) antibodies were used to identify the effect of verticillin A on proliferation and apoptosis, respectively. IHC staining was conducted at Nationwide Children’s Hospital (Columbus, OH) and analysis was performed at the Polaris Innovation Center (The Ohio State University, Columbus, OH, USA). IHC samples and analyses were verified by pathologist, O. Hans Iwenofu, M.D. (The Ohio State University, Department of Pathology, Columbus, OH, USA).
as §3

S462 cells [2] = experiment: MTS cell viability analysis, S462; type: cell-based, human
Description: as §2, §3

MPNST and LMS cell lines [3] = experiment: Clonogenic analysis; type: cell-based; settings: all doses, 24 h treatment then 10 days recovery
Description: Cells were seeded at 800 cells per well in a 6-well plate (9.5 cm^2) and allowed to attach overnight prior to treatment with DMSO or varying concentrations of verticillin A. Cells were treated for 24 h, then changed to recovery media and allowed to continue to grow for 10 days. Colonies were stained using 0.5% crystal violet solution in methanol for 30 min. Staining solution was removed, wells were washed with deionized H2O, and stained colonies were imaged and counted.

MPNST724 cells [4] = experiment: MTS cell viability analysis, MPNST724; type: cell-based, human
Description: as §2, §3

HSC = experiment: Cleaved caspase 3/7 activity, HSC; type: cell-based, human; settings: 24 h
Description: as §1

MPNST and LMS cell lines [5] = experiment: Cell cycle analysis (PI, FACS); type: cell-based; settings: MPNST and LMS cells, 24 h treatment
Description: Cells were synchronized by 16 h starvation prior to treatment with DMSO, 10, 50, or 100 nM of verticillin A for 24 h. Attached and floating cells were collected following treatment and centrifuged for 5 min at 2500 RPM. Supernatant was removed and cells were washed twice with cold PBS. Cells were centrifuged (2500 RPM/5 min) and resuspended in 70% ethanol and fixed overnight at −20° C. Cells were then centrifuged at (2500 RPM/5 min), and ethanol was removed. Subsequently, cells were resuspended in 400 µL PI stain (0.05 mg/mL/ 1 mg/mL sodium citrate/ 50 µL Triton-X-100/ 50 µL RNase A, brought to 50 mL with PBS) and analyzed via LSR II FACS analysis.

SKLMS1 cells [6] = experiment: MTS cell viability analysis, SKLMS1; type: cell-based
Description: as §2, §3

MPNST724 cells [7] = experiment: Annexin V/PI FACS analysis, MPNST724; type: cell-based, human; settings: MPNST724, 24 h treatment, concentration not given
Description: as §1

[8] = system: HASMC (human aortic smooth muscle cells); experiment: MTS cell viability analysis, HASMC; type: cell-based
Description: as §2, §3

[9] = system: HSC (human Schwann cells); experiment: MTS cell viability analysis, HSC; type: cell-based
Description: as §2, §3

[10] = system: HepG2 liver carcinoma cells; parameters: method as in PMID 21911457; settings: cited from earlier work
SKLMS1 cells [11] = experiment: Annexin V/PI FACS analysis, SKLMS1; type: cell-based; settings: SKLMS1, 24 h treatment, concentration not given
Description: as §1

LMS1 cells [12] = experiment: MTS cell viability analysis, LMS1; type: cell-based
Description: as §2, §3

SW620 colon cancer cells = system: SW620 colon cancer cells; parameters: method as in PMID 21911457; settings: cited from earlier work
S462 cells [13] = experiment: Annexin V/PI FACS analysis, S462; type: cell-based, human; settings: S462, 24 h treatment, concentration not given
Description: as §1

MPNST and LMS cell lines [14] = experiment: Cleaved caspase 3/7 activity, MPNST and LMS cell lines; type: cell-based; settings: all MPNST and LMS cell lines
Description: as §1

[15] = 0.5 mg/kg intraperitoneal every other day, day 11
[16] = MPNST724 xenograft tumors, 0.5 mg/kg
[17] = Homo sapiens, MTS, 24 h treatment

Compound: CN1C(=O)C23SSC1(C)C(=O)N2C1Nc2ccccc2C1(C12c4ccccc4NC1N1C(=O)C4(C)SSC1(C(=O)N4C)C2O)C3O (stereo not shown) [verticillin A]
- apoptosis (Annexin V/PI) (LMS1 cells [1]): 73.4 ± 12.7%
- effect on cell viability (ST88 cells; ST88, 10 nM): marked inhibitory effect
- cellular growth reduction (ST88 cells; ST88, 100 nM): 72.7%
- cleaved caspase 3/7 activity (HASMC): 1.2 fold change
- tumor volume (MPNST724 xenografts; 0.25 mg/kg intraperitoneal every other day, day 11): 355.89 mm^3
- verticillin A-induced mortality (MPNST724 xenografts; 0.5 mg/kg arm, 10 mice per arm): 2 mice
- toxicity signs in mice (MPNST724 xenografts; 0.5 mg/kg intraperitoneal every other day): reduced grooming tendencies and mild weight loss
- tumor volume (MPNST724 xenografts; [15]): 160.92 mm^3
- tumor weight (MPNST724 xenografts; [15]): 0.2 g
- decrease in Ki67 proliferation marker expression (IHC) (MPNST724 xenografts; [16]): ~40%
- increase in cleaved caspase 3 expression (IHC) (MPNST724 xenografts; [16]): 5.5 fold
- toxicity signs in mice (MPNST724 xenografts; lower dose (0.25 mg/kg)): Minor signs of toxicity
- EC50 (S462 cells [2]; Homo sapiens, S462, MTS, 24 h treatment): 26 nM
- effect on cell viability (S462 cells [2]; S462, 10 nM, 24 h): marked inhibitory effect
- cellular growth reduction (S462 cells [2]; S462, 100 nM, 24 h): 88.7%
- colony formation capacity (MPNST and LMS cell lines [3]): unable to form colonies
- EC50 (MPNST724 cells [4]; Homo sapiens, MPNST724, MTS, 24 h treatment): 125 nM
- effect on cell viability (MPNST724 cells [4]; MPNST724, 10 nM, 24 h): exhibited tolerance
- cellular growth reduction (MPNST724 cells [4]; MPNST724, 100 nM, 24 h): 39.7%
- cleaved caspase 3/7 activity (HSC): 1.1 fold change
- cell cycle arrest (MPNST and LMS cell lines [5]): No substantial arrest in cell cycle progression
- EC50 (SKLMS1 cells [6]; Homo sapiens, SK-LMS-1, SKLMS1, MTS, 24 h treatment): 74.6 nM
- effect on cell viability (SKLMS1 cells [6]; SKLMS1, 10 nM, 24 h): exhibited tolerance
- cellular growth reduction (SKLMS1 cells [6]; SKLMS1, 100 nM, 24 h): 57%
- apoptosis (Annexin V/PI) (MPNST724 cells [7]): 34 ± 4.3%
- effect on cell viability ([8]; 100 nM): no effect
- EC50 [8, 17]: 251 nM
- EC50 [9, 17]: 64.9 nM
- toxicity to normal cells ([9]; highest treatment dose): toxicity was seen
- cell cycle effect [10]: no changes in cell cycle progression
- apoptosis (Annexin V/PI) (SKLMS1 cells [11]): 29.4 ± 2.3%
- effect on cell viability (LMS1 cells [12]; LMS1, 10 nM, 24 h): marked inhibitory effect
- cellular growth reduction (LMS1 cells [12]; LMS1, 100 nM, 24 h): 96.7%
- EC50 (LMS1 cells [12]; LMS1, MTS, 24 h treatment): 10.7 nM
- cell cycle effect (SW620 colon cancer cells): induce G2 cell cycle arrest
- apoptosis (Annexin V/PI) (S462 cells [13]): 25.9 ± 3.75%
- increase in cleaved caspase 3/7 activity (MPNST and LMS cell lines [14]): nearly two-fold increase
